Laboratory results taken from ChEMBL document CHEMBL1158016, “Six new spongian diterpenes from the sponge spongia matamata” (J Nat Prod, 1999).
Converted amounts (≈) assume the structure as drawn.

tested on: not listed separately; assay: (§1) Toxicity in brine shrimp; format: organism-based; conditions: artemia, in vivo

Compound	LC50 [µg/mL]
C[C@]12CCC[C@](C)(C(=O)O)[C@@H]1CC[C@@]1(C)c3cocc3CC[C@H]21	10 (≈ 31.6 µM)

tested on: Artemia; assay: as §1; format: organism-based; conditions: in vivo

Compound	Activity
CO[C@@H]1OC(=O)C2=C1CC[C@@H]1[C@@]3(C)CCC[C@](C)(C(=O)O)[C@@H]3CC[C@@]21C	Non-toxic
CO[C@H]1OC(=O)C2=C1[C@]1(C)CC[C@@H]3[C@](C)(CCC[C@]3(C)C(=O)O)[C@H]1CC2	Non-toxic
C[C@]12CCC[C@](C)(C(=O)O)[C@@H]1CC[C@@]1(C)C3=C(CC[C@H]21)COC3=O	Non-toxic
C[C@]12CCC[C@](C)(C(=O)O)[C@@H]1CC[C@@]1(C)C3=C(CC[C@H]21)C(=O)OC3	Non-toxic
COC1O[C@H](OC)[C@]2(O)[C@]1(O)CC[C@@H]1[C@@]3(C)CCC[C@](C)(C(=O)O)[C@@H]3CC[C@]12C (stereo partly specified)	Non-toxic
